Structures are written as SMILES.

These results are taken from publication PMC6274554, “Synthetic Strategy and Anti-Tumor Activities of Macrocyclic Scaffolds Based on 4-Hydroxyproline” (Molecules, 2016).

What all share (format): cell-based, human
Test [1] relates to lung cancer cell line A549. As to the kind of experiment: MTT cytotoxicity assay, A549. To be noted: Homo sapiens, A549 cells, 8000 cells/well, 24 h incubation with compound, absorbance 490 nm, read-out: IC50 (μmol/L) A549. An excerpt: (§1) A small library derived from 6a–b, 9 and 10a–c was obtained by hydrolysis of the macrocycles and condensation with amines. The anti-tumor activities for lung cancer cell line A549, breast cancer cell line MDA-MB-231 and hepatocarcinoma cell line Hep G2 of all these new compounds were screened in vitro by an MTT assay. Most of the compounds show some inhibitory activities against A549, MDA-MB-231 and Hep G2. […] In the future, further structure–activity relationship studies will be performed to determine how the substituents affected the anti-tumor activity and to design the best chemical structure in the future.
(§2) The human lung cancer cell line A549, breast cancer cell line MDA-MB-231 and hepatocarcinoma cell line Hep G2 were cultured in Dulbecco’s modified Eagle’s medium (DMEM) supplemented with antibiotics (penicillin 50 U/mL; streptomycin 50 µg/mL) and 10% FCS. The incubation was at 37 °C in a humidified atmosphere of 5% CO2 in air before experiments. Cells were first seeded at a density of 8000 cells/well in a 96-well plate for 48 hours. Solutions containing respective concentrations of compounds were added into wells and incubation continued for another 24 hours. After that, the MTT (3-(4,5-dimethylthiazol-2-yl)-2,5-diphenyltetrazolium bromide) dye stock solution (10 μL, 5 mg/mL) was added to each well. After 4 h, the supernatant was removed and DMSO (100 μL) was added to solubilize the MTT. The absorbance was measured at a wave length of 490 nm (A490nm) on an ELISA microplate reader. Results were expressed as IC50 values.

For test [2], the system named is hepatocarcinoma cell line Hep G2. Nature of the test: MTT cytotoxicity assay, Hep G2. To be noted: Homo sapiens, HepG2, Hep G2 cells, 8000 cells/well, 24 h incubation with compound, absorbance 490 nm, read-out: IC50 (μmol/L) Hep G2.
Source text: as §1, §2
For orientation: Formazan colour is commonly taken as a measure of viable cells.

The test system of test [3] is breast cancer cell line MDA-MB-231. Nature of the test: MTT cytotoxicity assay, MDA-MB-231. To be noted: Homo sapiens, MDA-MB-231 cells, 8000 cells/well, 24 h incubation with compound, absorbance 490 nm, read-out: IC50 (μmol/L) MDA-MB-231.
Source text: as §1, §2

With `O=C(O)[C@@H]1C[C@@H]2CN1C(=O)c1cccc(c1)OCCCCCO2` [Compound 38, (9R,11S)-13-Oxo-2,8-dioxa-12-aza-tricyclo[12.3.1.1^9,12]nonadecane-1(18),14,16-triene-11-carboxylic acid], the IC50 is more than 100 µmol/L in test [1], more than 100 µmol/L in test [2] and 92.3 µmol/L in test [3].

On to `NC(=O)[C@@H]1C[C@@H]2CN1C(=O)c1cccc(c1)OC/C=C\CO2` [Compound 31, (4Z,8R,10S)-12-Oxo-2,7-dioxa-11-aza-tricyclo[11.3.1.1^8,11]octadecane-4,1(17),13,15-tetraene-10-carboxamide], for which the IC50 in test [1] turned out to be 5.21 µmol/L; in test [2] it was 31.9 µmol/L; in test [3], 12.3 µmol/L.

For `NC(=O)[C@@H]1C[C@@H]2CN1C(=O)c1cccc(c1)OCCCCCO2` [Compound 39, (9R,11S)-13-Oxo-2,8-dioxa-12-aza-tricyclo[12.3.1.1^9,12]nonadecane-1(18),14,16-triene-11-carboxamide], the IC50 in test [1] was 63.7 µmol/L; in test [2], more than 100 µmol/L; in test [3], 57.3 µmol/L.
